Source: PMC5913986, “Repurposing and Reformulation of the Antiparasitic Agent Flubendazole for Treatment of Cryptococcal Meningoencephalitis, a Neglected Fungal Disease” (Antimicrobial Agents and Chemotherapy, 2018)

Assays:
[1] = In vitro DMPK: human microsomal intrinsic clearance; format: in vitro ADME; conditions: human microsomes
[2] = design: species or system mice; conditions: mouse, in vivo
Description: The pharmacokinetics of oral flubendazole was determined with two independently conducted experiments. Treatment was initiated 24 h postinoculation. Doses of 2 to 12 mg/kg were used. Only the first dosing interval was studied. A serial-sacrifice design was used with groups of 3 mice that were sacrificed at 0.5, 1, 2, 8, and 24 h […].
(§1) The pharmacokinetic and pharmacodynamic data sets from mice were modeled using the program Pmetrics ([33]) and the following five inhomogeneous differential equations: (1) XP(1)=B(1)−Ka×X(1) (2) XP(2)=Ka×X(1)−(SCL/V)×X(2)−Kcp×X(2)+Kpc×X(3)−Kcb×X(2)+Kbc×X(4) (3) XP(3)=Kcp×X(2)−Kpc×X(3) (4) XP(4)=[…] (5) XP(5) = Kgmax [1−((X(4)/V)^Hg/C50g^Hg+(X(4)/V)^Hg)] × [1−(X(5)/POPMAX)]×X(5)
(§2) The system parameters and their units are as follows: B(1) (mg) represents the bolus input of flubendazole into the gut. Ka (h^−1) is the first-order rate constant collecting the gut and the central compartment, SCL (liters/h) is the clearance of flubendazole from the central compartment, V (liters) is the volume of the central compartment, and Kcp (h^−1) and Kpc (h^−1) are the first-order intercompartmental rate constants. Kgmax (log10 CFU/g/h) is the maximal rate of cryptococcal growth. POPMAX (CFU/g) is the maximum theoretical fungal density. C50g (mg/liter) is the concentration of flubendazole that induces half-maximal effects on growth. Hg is the slope function for growth. The initial condition (CFU/g; not shown in the equations) is the fungal density immediately following inoculation and is estimated along with other parameters.
(§3) Equations 1, 2, 3, and 4 are pharmacokinetic equations that describe the movement of drug from the gut, throughout the body, and into the brain. Equation 1 describes the movement of drug from the gut. Equation 2 describes the rate of change of flubendazole in the central compartment (plasma) with first-order clearance and movement of drug to and from both a peripheral (unmeasured) compartment and the cerebrum. Equations 3 and 4 describe the rate of change of drug in the peripheral and cerebral compartments, respectively. The pharmacodynamics of flubendazole against Cryptococcus neoformans is described by equation 5, which has terms that describe the capacity-limited growth of Cryptococcus and flubendazole-induced suppression of growth. The antifungal activity in the cerebrum is primarily related to concentrations in the cerebrum.

[3] = system: Cryptococcus neoformans; assay: Pharmacodynamics of oral flubendazole nanoformulation in murine model of cryptococcal meningitis; format: in vivo; conditions: mice
Description: A previously described ([8]) and well-characterized murine model of cryptococcal meningitis was used to investigate the pharmacodynamics of flubendazole. All laboratory animal experiments were performed under UK Home Office project license PPL40/3630 and were approved by the University of Liverpool's Animal Welfare Ethics Review Board. Male CD1 mice were purchased from Charles River and were 20 to 30 g at the time of experimentation. An inoculum of 3 × 10^8 CFU in 0.25 ml was used for each mouse. Groups of mice (n = 3) were serially sacrificed throughout the experimental period. The brains were removed and homogenized. Serial 10-fold dilutions were plated to YPD agar supplemented with chloramphenicol to enumerate the total fungal burden. Plates were incubated in air at 30°C for at least 48 h.
The pharmacodynamics of oral flubendazole was estimated over the course of three separate independently conducted experiments. Groups of 3 mice were sacrificed at 2, 24, 48, 96, 144, and 168 h postinoculation. Dose finding studies were performed using flubendazole at 2, 4, 6, 8, and 12 mg/kg q24h orally. The upper dosage was limited by the volume restrictions for mice imposed by Home Office project license PPL40/3630. A fourth experiment compared 12 mg/kg q24 with 6 mg/kg q12h to examine whether more fractionated regimens provided any additional antifungal effect.
as §1, §2, §3

[4] = system: Cryptococcus neoformans; assay: Pharmacodynamics in rabbit model of cryptococcal meningitis; format: in vivo; conditions: rabbits; for antifungal effect: CSF
Description: A previously described and well-characterized rabbit model of cryptococcal meningoencephalitis ([32]) was used to further investigate the pharmacodynamics of flubendazole. Male New Zealand White rabbits were purchased from Harlan. Rabbits weighed 2.5 to 3 kg at the time of experimentation. Rabbits were immunosuppressed intramuscularly with hydrocortisone at 10 mg/kg on day −1 relative to infection and then daily throughout the experiment.
Cryptococcal meningoencephalitis was induced with the intracisternal inoculation of 0.25 ml of a suspension containing 3.8 × 10^8 CFU/ml under general anesthesia (induced with medetomidine and ketamine). This inoculum results in progressive infection that manifests as an increase in fungal burden in the CSF and reproducible encephalitis. There was minimal clinical disease with no demonstrable neurological signs in the experimental period. Mortality always occurred in the context of cisternal tapping and repeated anesthesia rather than from progressive infection.
We directly linked plasma concentrations with the antifungal effect.

[5] = design: method as in PMID 26443851; conditions: cited from earlier work
[6] = system: filarial diseases such as onchocerciasis and lymphatic filariasis; design: method as in PMID 21609260; conditions: given subcutaneously; cited from earlier work

COC(=O)Nc1nc2cc(C(=O)c3ccc(F)cc3)ccc2[nH]1 [flubendazole]
microsomal CLint [1]: 44 µL/min/mg | absorption after oral dosing [2]: rapidly absorbed | Ka, mean ([2]; po): 11.312 h⁻¹ | Ka, median ([2]; po): 14.895 h⁻¹ | Kbc, mean ([2]; po): 0.056 h⁻¹ | Kbc, median ([2]; po): 0.056 h⁻¹ | Kcb, mean ([2]; po): 3.446 h⁻¹ | Kcb, median ([2]; po): 0.594 h⁻¹ | Kcp, mean ([2]; po): 15.741 h⁻¹ | Kcp, median ([2]; po): 15.404 h⁻¹ | Kpc, mean ([2]; po): 16.997 h⁻¹ | Kpc, median ([2]; po): 16.915 h⁻¹ | SCL/F (apparent clearance), mean ([2]; po): 0.039 L/h | SCL/F (apparent clearance), median ([2]; po): 0.026 L/h | Vb/F (apparent volume of brain), mean ([2]; po): 0.277 L | Vb/F (apparent volume of brain), median ([2]; po): 0.146 L | Vc/F (apparent volume of central compartment), mean ([2]; po): 0.051 L | Vc/F (apparent volume of central compartment), median ([2]; po): 0.069 L | cerebrum concentrations relative to plasma ([2]; po): consistently higher than those observed in plasma | ratio of AUC for serum and AUC for cerebrum ([2]; po): 1:4.44 | reduction in fungal burden compared with vehicle-treated controls ([3]; 12 mg/kg of body weight/day orally (abstract)): ~2 log10CFU/g | effect on fungal growth in the brain ([3]; 12 mg/kg/day orally): slowed but did not prevent fungal growth in the brain | C50g (concentration inducing half-maximal effects on growth), mean ([3]; PK-PD model): 2.04 mg/L | C50g (concentration inducing half-maximal effects on growth), median ([3]; PK-PD model): 1.68 mg/L | Hg (slope function for effect on growth), mean ([3]; PK-PD model): 10.338 | Hg (slope function for effect on growth), median ([3]; PK-PD model): 5.096 | antifungal effect of 6 mg/kg q12h compared with 12 mg/kg/day ([3]; oral, single experiment, data not shown): no difference in antifungal effect | antifungal effect ([4]; 6 mg/kg/day orally): no demonstrable antifungal effect | antifungal effect ([4]; 22.5 mg/kg q24h orally, few animals): the effect was small | fungal burden in the cerebrum at the end of the experiment vs other groups ([4]; 6 and 22.5 mg/kg q24h, 288 h postinoculation, P = 0.464): no difference in the fungal burden | aneugenicity [5]: aneugenic | clastogenicity [5]: clastogenic | embryotoxicity [5]: embryotoxic | activity in filarial disease models [6]: striking activity
